Results as given in patent US20250171419A1, “NOVEL NICOTINAMIDE PHOSPHORIBOSYLTRANSFERASE INHIBITORS AND USES THEREOF” (Heidelberg Pharma Research GmbH, priority 2023, published 2025).
Where a name gives a salt, the structure may show the parent alone.

Columns and labels:
[1] = Acid hydration stability (TFA, 37° C); assay type: physicochemical; settings: for tendency of cyanoguanidine group to hydration and degradation: pH values below 2, formation of guanylurea intermediates
Source text: Since the lysosomal pH is acidic and contains numerous hydrolases, NAMPT inhibitors bearing cyanoguanidines may therefore be degraded in the lysosome. […] The product was confirmed by mass spectrometry and NMR analysis. The inhibitor C42a was designed as an alternative to cyanoguanidine compounds containing urea as non-hydratable group.

[2] = tested on: human breast and lung cancer cell line-derived in vivo models; settings: cited from earlier work
solid tumors = settings: cited from earlier work
[3] = tested on: murine renal cell carcinoma model RENCA; settings: cited from earlier work
[4] = assay type: in vitro ADME, human
Procedure: The test compound was incubated at a concentration of 17.7 μM in a mixture of human liver lysosomal extract (tebu-bio, Seikisui Xenotech, Ref: H0610.L) and 1× catabolism buffer (tebu-bio, Seikisui Xenotech, Ref: K5200) for […] at 37° C. Samples were taken at 0, 2, 4, 24, 48, 72, 120, and 168 hours. Control samples without lysosomal extract were also set up under the same conditions as the test sample. All measurements and samples were taken in duplicate.
To measure the reaction, the compound was quenched by adding 380 μL of internal standard buffer (30 ng/mL of internal standard in ACN) to 20 μL of the sample. An amanitin-stable isotope-labelled analogue was used as the internal standard.
22 μL of the quenched sample was analysed using UPLC-MS-MS QTrap 5500 (Column: Waters ACQUITY UPLC BEH Amide, […], 2.1×100 mm, product code: 186004801). This assay was related to compound 113. Compound 113 was expected to be the main degradation compound after lysosomal enzymatic digestion and was used as a reference for the detection of catabolites after digestion in the HPLC-MS analysis.
The ion fragments detection method was multiple reaction monitoring (MRM). In this method, the mass is measured by a tandem mass spectrometer where the initial molecular ion is selected as initial mass. […]

L540 CD30+ cell line = assay: Cytotoxicity in L540 CD30+ cell line, CellTiter-Glo 2.0 readout after 96 h; assay type: cell-based; settings: FIG. 10 C
Procedure: L540 CD30^+ cell lines were used for the study. 2×10^3 Cells were added to each well of a 96-well plate, but for the blank wells. Test compounds and controls were added to their corresponding lanes in a 7-step 1:5 dilution series starting with the concentration of 1×10^−5 M for non-conjugated inhibitors and 1×10^−7 M for ADCs and free monoclonal antibody. The dilution scheme was prepared in triplicates for each sample. Cells were incubated at 37° C. at 5% CO2 for 96 h in an evaporation chamber. Readout was performed using CellTiter-Glo 2.0 assay, according to the kit instructions (Promega; Cat #G9242).
2×10^3 Cells were added to each well of a 96-well plate, but for the blank wells. […] Cells were incubated at 37° C. at 5% CO2 for 96 h in an evaporation chamber. Readout was performed using CellTiter-Glo 2.0 assay, according to the kit instructions (Promega; Cat #G9242).
2×10^3 Cells were added to each well of a 96-well plate, but for the blank wells. […] Cells were incubated at 37° C. at 5% CO2 for 96 h in an evaporation chamber. Readout was performed using CellTiter-Glo® 2.0 assay, according to kit instructions (Promega; Cat #G9242).

For N#C/N=C(\NCCCCC1(O)CCN(C(=O)c2cccc(N)c2)CC1)Nc1cccnc1 [C22a, (E)-1-(4-(1-(3-aminobenzoyl)-4-hydroxypiperidin-4-yl)butyl)-2-cyano-3-(pyridin-3-yl)guanidine], the “tendency of cyanoguanidine group to hydration and degradation” value [1] was “tend towards hydration and degradation”.
In the case of Nc1cccc(C(=O)N2CCC(O)(CCCCNC(=O)N3Cc4ccccc4C3)CC2)c1 [C42a, N-(4-(1-(3-aminobenzoyl)-4-hydroxypiperidin-4-yl)butyl)isoindoline-2-carboxamide TFA salt], the “time stable under the conditions that triggered the hydration of 36” value ([1]; identical conditions as those that triggered the hydration of 36) is reported as “more than 2 weeks” and the “hydration at pH values below 2” value ([1]; pH values below 2 at 37° C for more than 2 weeks) is reported as “no hydration”.
For N#CNC(=Nc1ccncc1)NCCCCCCOc1ccc(Cl)cc1 [CHS-828, N-[6-(4-chlorophenoxy)hexyl]-N′-cyano-N″-4-pyridinyl-guanidine], the “cytotoxic effects in vitro and in vivo” value [2] is given as “highly cytotoxic effects” and the “observed responses in the clinical trials” value (solid tumors) is given as “stable disease”.
In the case of O=C(/C=C/c1cccnc1)NCCCCC1CCN(C(=O)c2ccccc2)CC1 [Daporinad, (E)-N-[4-(1-benzoylpiperidin-4-yl)butyl]-3-(pyrldine-3-yl)-acrylamide], the in vivo efficacy [3] is listed as “In vivo efficacy of daporinad was shown”.
For N#C/N=C(\NCCCCC1CCN(C(=O)c2cccc(N)c2)CC1)Nc1cccnc1 [compound 36, (E)-1-(4-(1-(3-aminobenzoyl)piperidin-4-yl)butyl)-2-cyano-3-(pyridin-3-yl)guanidine], the “hydration of the cyanoguanidine moiety under acid pH” value ([1]; acid pH) was “undergoes hydration of the cyanoguanidine moiety to guanylurea”, the “acid hydration reaction involving TFA, pH above 2” value ([1]; pH values above 2, after 48 hours at 37° C) was “the reaction did not occur” and the “acid hydration reaction involving TFA, pH below 2” value ([1]; pH values below 2, within 24 hours at 37° C) was “guanylurea 113 was obtained in excellent yield”. For the same compound, the “tendency of cyanoguanidine group to hydration and degradation” value [1] was “tend towards hydration and degradation”, the “degradation in the absence of lysosomal enzymes” value [4] was “no degradation is observed” and the “degradation versus generation of the hydrated product 113” value [4] was “inversely correlates”.
For NC(=O)/N=C(\NCCCCC1CCN(C(=O)c2cccc(N)c2)CC1)Nc1cccnc1 [compound 113, (E)-1-(((4-(1-(3-aminobenzoyl)piperidin-4-yl)butyl)amino)(pyridin-3-ylamino)methylene)urea], the “toxicity in L540 cells compared to inhibitor 36” value (L540 CD30+ cell line) was “significantly reduced toxicity”.
